Measurements as given in the NIST ThermoML archive (doi:10.1016/j.jct.2010.08.010).

Conditions: Liquid, Buoyancy - hydrostatic balance with magnetic suspension - one sinker

Cc1ccccc1 [toluene]
Conditions	mass density [kg/m3]
333.15 K, 9960.3 kPa	838.314
333.15 K, 12120 kPa	840.218
333.15 K, 14111 kPa	841.938
333.15 K, 15857 kPa	843.417
333.15 K, 18129 kPa	845.312
333.15 K, 19860 kPa	846.724
333.15 K, 22144 kPa	848.558
333.15 K, 24050 kPa	850.059
333.15 K, 25886 kPa	851.479
333.15 K, 28037 kPa	853.128
333.15 K, 29895 kPa	854.529
353.15 K, 100.22 kPa	809.674
353.15 K, 1169.9 kPa	810.881
353.15 K, 2003.6 kPa	811.814
353.15 K, 4142.5 kPa	814.153
353.15 K, 6005.5 kPa	816.142
353.15 K, 8141.3 kPa	818.365
353.15 K, 10004 kPa	820.255
353.15 K, 12008 kPa	822.24
353.15 K, 14198 kPa	824.368
353.15 K, 16142 kPa	826.212
353.15 K, 18101 kPa	828.027
353.15 K, 19917 kPa	829.683
353.15 K, 22138 kPa	831.662
353.15 K, 24034 kPa	833.323
353.15 K, 26059 kPa	835.06
353.15 K, 28105 kPa	836.785
353.15 K, 29954 kPa	838.316
373.15 K, 1259.9 kPa	791.299
373.15 K, 2065.8 kPa	792.34
373.15 K, 3870.7 kPa	794.611
373.15 K, 6198.3 kPa	797.456
373.15 K, 8095.9 kPa	799.709
373.15 K, 9917.3 kPa	801.809
373.15 K, 12114 kPa	804.274
373.15 K, 13934 kPa	806.263
373.15 K, 16020 kPa	808.493
373.15 K, 18023 kPa	810.573
373.15 K, 19927 kPa	812.508
373.15 K, 22108 kPa	814.677
373.15 K, 23970 kPa	816.486
373.15 K, 25950 kPa	818.372
373.15 K, 27874 kPa	820.167
373.15 K, 29907 kPa	822.029
393.15 K, 1097.4 kPa	770.672
393.15 K, 1998.7 kPa	772.03
393.15 K, 4084.6 kPa	775.078
393.15 K, 6214.8 kPa	778.084
393.15 K, 8059.3 kPa	780.589
393.15 K, 9988.4 kPa	783.137
393.15 K, 12134 kPa	785.871
393.15 K, 14051 kPa	788.257
393.15 K, 16078 kPa	790.683
393.15 K, 18012 kPa	792.945
393.15 K, 19811 kPa	794.994
393.15 K, 22110 kPa	797.55
393.15 K, 23923 kPa	799.514
393.15 K, 25870 kPa	801.576
393.15 K, 27974 kPa	803.747
393.15 K, 29891 kPa	805.692
413.15 K, 1099.1 kPa	749.389
413.15 K, 1960.8 kPa	750.924
